The subject of experiment [1] is S. aureus 502a, E. coli ML35, and C. albicans 16820. Briefly: Cell-suspension microbicidal assay, statements across the test organisms (lowest MMC, overall ranges). The experiment is classed as cell-based. Particulars: peptide concentration that kill 99.9% of either S. aureus, E. coli, or C. albicans; lowest MMC value. As for the experimental part: (§1) To test microbicidal activities, the activities of each peptide against S. aureus 502a, E. coli ML35, and C. albicans 16820 were assessed essentially as described in Example I with modifications to allow for simultaneous analysis of all twenty peptides. Briefly, two-fold serial dilutions of each peptide (in 0.01% acetic acid 0.062-8.0 μg/ml final concentrations) were mixed with 10 mM PIPES, pH 7.4, containing 5 mM glucose in sterile polystyrene 96-well plates (Corning, N.Y.). Aliquots of log-phase bacteria or yeast were added to a 2×10^6 CFU/ml final density as determined by A620. After 2 h incubation at 37° C., 15 μl of the incubation mixture was removed and serially diluted ten-fold from 1:10 to 1:10^6 in trypticase soy broth (bacteria) or Sabaraud dextrose broth (C. albicans). The diluted cell suspensions were grown 24-48 h at 37° C. until cell pellets were visible. Microbicidal activity was determined as absence of growth and was correlated to CFU/ml in control experiments where activity was determined in parallel by colony counting (see Example I). Absence of growth at the 1:10^3 dilution is equivalent to a 3-log reduction in microbial viability.
(§2) The microbicidal activities of each peptide against E. coli ML35, S. aureus 502a, and C. albicans 16820 were determined with cell-suspension microbicidal assays in 96-well plates (see Example II). Briefly, log-phase cells (2×10^6 CFU/ml final) were incubated with increasing concentrations of peptides (0-8 μg/ml final) in 50 μl of 10 mM PIPES, 5 mM glucose, pH 7.4, for 2 h at 37° C. Incubation mixtures were diluted 1:10 to 1:10^6 with trypticase-soy broth (bacteria) or Sabaraud dextrose broth (fungi) and incubated at 37° C. for 24-48 h until cell pellets were visible. Microbicidal activities (confirmed in control experiments as described in Example II) were determined as the absence of a cell pellet in the various dilutions. Peptide concentrations that caused ≧99.9% killing (absence of a cell pellet at 1:10^3 dilution) were taken as the minimum microbicidal concentrations (MMC).
A selectivity index (SI=H/M) was calculated as a ratio of a peptide concentration (μg/ml) that causes 3% hemolysis (H) obtained from a dose-dependent hemolysis plot over 0.3 to 3 μg/ml of each peptide in PBS and the lowest MMC value (M) for any of the three test microorganisms (see Example II; Table 2).

The subject of experiment [2] is E. coli ML35. Briefly: Membrane permeabilization assay (ONPG hydrolysis). The experiment is classed as cell-based, Escherichia coli. Particulars: rates at 1 μg/ml concentration of each peptide. The procedure:
For the membrane permeabilization assay, the permeabilization of bacterial cytoplasmic membranes was determined by measuring hydrolysis of o-nitrophenyl-β-D-galactcpyranoside (ONPG) in E. coli ML35 (Sitaram et al., FEBS Lett. 303:265-268 (1992); Lehrer et al.,. J. Immunol. Methods 108:153-158 (1988)). Peptides dissolved in 5 μl of 0.01% acetic acid were two-fold serially diluted with 10 mM PIPES, pH 7.4, containing 3 mM ONPG, to final peptide concentrations of 0-8.0 μg/ml. Log-phase bacteria, prepared in PIPES buffer as described for the microbicidal assay (see Example I), were added to 1×10^6 CFU/ml final density in a final volume of 90 μl. ONPG hydrolysis was measured at 405 nm for 60 min using a SpectraMAX 190 plate reader and SOFTmaxPRO 3.1 (Molecular Devices Corp., CA). […]

Experiment [3] concerns E. coli ML35. Put plainly: Cell-suspension microbicidal assay (MMC). The experiment is classed as cell-based, Escherichia coli. The note with it: lowest concentration that reduced cell viability by 99.9%; 10 mM PIPES, 5 mM glucose, pH 7.4; 2 h 37° C. The procedure:
as §1, §2

The subject of the next experiment is S. aureus 502a. Briefly: Cell-suspension microbicidal assay (MMC). It is filed as cell-based, Staphylococcus aureus. The note with it: for MMC, S. aureus: lowest concentration that reduced cell viability by 99.9%, 10 mM PIPES, 5 mM glucose, pH 7.4, 2 h 37° C. As for the experimental part: as §1, §2
The next experiment has as its system C. albicans 16820. Put plainly: Cell-suspension microbicidal assay (MMC). The experiment is classed as cell-based, Candida albicans. Particulars: for MMC, C. albicans: lowest concentration that reduced cell viability by 99.9%, 10 mM PIPES, 5 mM glucose, pH 7.4, 2 h 37° C. As for the experimental part:
as §1, §2

Structures are written as SMILES. Bridge positions count the residues as written; N and C are the ends. Peptide text beside a SMILES is read from it.

`CC(C)[C@@H]1NC(=O)[C@@H]2CSSC[C@H](NC(=O)[C@H](CCCNC(=N)N)NC(=O)[C@@H](NC(=O)CNC(=O)CNC(=O)[C@@H](N)CCCNC(=N)N)CSSC[C@@H](C(=O)N[C@@H](CCCNC(=N)N)C(=O)O)NC1=O)C(=O)N[C@@H](Cc1ccc(O)cc1)C(=O)N[C@H]1CSSC[C@H](NC(=O)[C@H](Cc3ccccc3)NC(=O)[C@H](CCCNC(=N)N)NC(=O)[C@H](CCCNC(=N)N)NC(=O)[C@H](CCCNC(=N)N)NC1=O)C(=O)N[C@@H](C(C)C)C(=O)N2` [3cys 3:1 PG-1-OH] (H-RGGCRCYCRRRFCVCVCR-OH; disulfide 4-17, 6-15, 8-13; N-terminus assumed) showed a M in experiment [1] of 0.5 µg/mL. In the experiment on E. coli ML35 [2], the ONPG hydrolysis was 11.0 (A405/sec) · 10^−5. For the same compound, the “MMC, E. coli” value in the experiment with E. coli ML35 [3] came to 1.5 µg/mL. Further, the “MMC, S. aureus” value in the experiment with S. aureus 502a worked out at 0.5 µg/mL. Moreover, in the experiment on C. albicans 16820, the “MMC, C. albicans” value was found to be 1.5 µg/mL.
Take `CC(C)[C@@H]1NC(=O)[C@@H]2CSSC[C@H](NC(=O)[C@H](CCCNC(=N)N)NC(=O)[C@@H](NC(=O)CNC(=O)CNC(=O)[C@@H](N)CCCNC(=N)N)CSSC[C@@H](C(=O)N[C@@H](CCCNC(=N)N)C(N)=O)NC1=O)C(=O)N[C@@H](Cc1ccc(O)cc1)C(=O)N[C@H]1CSSC[C@H](NC(=O)[C@H](Cc3ccccc3)NC(=O)[C@H](CCCNC(=N)N)NC(=O)[C@H](CCCNC(=N)N)NC(=O)[C@H](CCCNC(=N)N)NC1=O)C(=O)N[C@@H](C(C)C)C(=O)N2` [3cys 3:1 PG-1-NH] (H-RGGCRCYCRRRFCVCVCR-NH2; disulfide 4-17, 6-15, 8-13; N-terminus assumed): the M in experiment [1] was found to be 1.5 µg/mL. Moreover, the ONPG hydrolysis with E. coli ML35 [2] was 12.3 (A405/sec) · 10^−5. The “MMC, E. coli” value in the experiment with E. coli ML35 [3] was determined as 1.5 µg/mL. Moreover, the “fold lower staphylocidal potency than native PG-1” value with S. aureus 502a (from MMC, Table 2) is reported as 5 fold. Moreover, the “MMC, S. aureus” value in the experiment with S. aureus 502a came to 2.0 µg/mL. In addition, the “fold lower candidacidal potency than native PG-1” value in the experiment with C. albicans 16820 (from MMC, Table 2) worked out at 5 fold. Moreover, the “MMC, C. albicans” value in the experiment with C. albicans 16820 is 4.0 µg/mL.
For the compound `CC(C)C[C@H](NC(=O)[C@H](CCCNC(=N)N)NC(=O)CNC(=O)CN)C(=O)N[C@H]1CSSC[C@@H](C(=O)N[C@H](C(=O)NCC(=O)N[C@@H](CCCNC(=N)N)C(=O)N[C@@H](CCCNC(=N)N)C(=O)O)C(C)C)NC(=O)[C@H](C(C)C)NC(=O)[C@@H]2CSSC[C@H](NC(=O)[C@H](Cc3ccc(O)cc3)NC1=O)C(=O)N[C@@H](CCCNC(=N)N)C(=O)N[C@@H](CCCNC(=N)N)C(=O)N[C@@H](CCCNC(=N)N)C(=O)N[C@@H](Cc1ccccc1)C(=O)N2` [4:4 PG-1-OH] (H-GGRLCYCRRRFCVCVGRR-OH; disulfide 5-14, 7-12; N-terminus assumed), the M in experiment [1] worked out at 1 µg/mL. For the same compound, the ONPG hydrolysis in the experiment on E. coli ML35 [2] is listed as 12.1 (A405/sec) · 10^−5. Further, the “MMC, E. coli” value in the experiment with E. coli ML35 [3] came to 1.0 µg/mL. In addition, in the experiment with S. aureus 502a, the “MMC, S. aureus” value is 1.0 µg/mL. For the same compound, the “MMC, C. albicans” value in the experiment with C. albicans 16820 amounted to 2.5 µg/mL.
`CC(C)[C@@H]1NC(=O)[C@@H]2CSSC[C@H](NC(=O)[C@H](CCCNC(=N)N)NC(=O)[C@@H](NC(=O)CNC(=O)CN)CSSC[C@@H](C(=O)N[C@@H](CCCNC(=N)N)C(=O)N[C@@H](CCCNC(=N)N)C(=O)O)NC1=O)C(=O)N[C@@H](Cc1ccc(O)cc1)C(=O)N[C@H]1CSSC[C@H](NC(=O)[C@H](Cc3ccccc3)NC(=O)[C@H](CCCNC(=N)N)NC(=O)[C@H](CCCNC(=N)N)NC(=O)[C@H](CCCNC(=N)N)NC1=O)C(=O)N[C@@H](C(C)C)C(=O)N2` [3cys 2:2 PG-1-OH] (H-GGCRCYCRRRFCVCVCRR-OH; disulfide 3-16, 5-14, 7-12; N-terminus assumed) gave a M in experiment [1] of 1 µg/mL. The ONPG hydrolysis in the experiment on E. coli ML35 [2] is reported as 13.0 (A405/sec) · 10^−5. For the same compound, in the experiment on E. coli ML35 [3], the “MMC, E. coli” value stood at 1.0 µg/mL. Further, the “fold lower staphylocidal activity than 3cys 3:1 PG-1-OH” value in the experiment on S. aureus 502a (from MMC, Table 2) is recorded as 2-4 fold. For the same compound, in the experiment on S. aureus 502a, the “MMC, S. aureus” value was determined as 2.0 µg/mL. For the same compound, the “fold lower candidacidal activity than 3cys 3:1 PG-1-OH” value with C. albicans 16820 (from MMC, Table 2) was 2-4 fold. Besides, the “MMC, C. albicans” value in the experiment with C. albicans 16820 is 4.0 µg/mL.

These data come from patent publication US7462598B2, “Antimicrobial theta defensins, analogs thereof, and methods of use” (priority 2002, dated 2008).
